Laboratory results reported in patent publication US10344025B2, “GLS1 inhibitors for treating disease” (Board of Regents, The University of Texas System, priority 2014, dated 2019).

What was measured:
A549 cells = assay: Proliferation Assay (A549 viability, Cell Titer Fluor, 72 hours); format: cell-based; settings: Homo sapiens, A549, 72 h
Procedure, shortened: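 Cell Titer Fluor fluorescence after 72 h compound treatment (0.5% DMSO, 37 °C, 5% CO2) of A549 cells plated 24 h earlier at 1000/well. Four-parameter logistic fitting gave IC50.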

[1] = molecular target: purified recombinant human GAC (GLS1) (Homo sapiens (Human), UniProt O94925); assay: GLS1 Enzymatic Activity Assay (dual-coupled enzymatic assay, resorufin/Amplex UltraRed readout); format: biochemical;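 further: glutamate from GAC coupled via glutamate oxidase and peroxidase to resorufin, read as fluorescence (ex 530, em 590 nm) kinetically or at 20 min, four-parameter logistic IC50 fit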
purified recombinant human GAC (GLS1), sequence (O94925 other isoform, or with tags, fused parts or gaps): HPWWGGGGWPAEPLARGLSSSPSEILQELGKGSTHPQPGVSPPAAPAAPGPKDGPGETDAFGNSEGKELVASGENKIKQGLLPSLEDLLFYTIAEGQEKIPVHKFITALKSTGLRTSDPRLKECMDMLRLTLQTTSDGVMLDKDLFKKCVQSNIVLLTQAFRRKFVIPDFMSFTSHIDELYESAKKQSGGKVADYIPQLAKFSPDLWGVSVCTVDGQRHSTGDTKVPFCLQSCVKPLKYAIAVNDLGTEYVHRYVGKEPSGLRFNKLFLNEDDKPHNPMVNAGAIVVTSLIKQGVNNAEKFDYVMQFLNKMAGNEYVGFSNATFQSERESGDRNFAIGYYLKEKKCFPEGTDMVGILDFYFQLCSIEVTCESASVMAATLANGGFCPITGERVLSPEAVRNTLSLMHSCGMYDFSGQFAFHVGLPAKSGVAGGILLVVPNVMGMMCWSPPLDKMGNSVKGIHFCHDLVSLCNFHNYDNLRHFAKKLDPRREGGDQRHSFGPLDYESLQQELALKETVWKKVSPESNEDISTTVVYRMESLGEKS

Row | SMILES | EC50 (A549 cells) [nM] | IC50 [1] [nM]
1 | O=C(Cc1cc(OC(F)(F)F)ccc1F)Nc1cn(CC(F)CCn2cc(C(=O)NCc3ccc(C(F)(F)F)nc3)nn2)nn1 (centres unmarked) [Example 412, 1-[3-fluoro-4-(4-{2-[2-fluoro-5-(trifluoromethoxy)phenyl]acetamido}-1H-1,2,3-triazol-1-yl)butyl]-N-{[6-(trifluoromethyl)pyridin-3-yl]methyl}-1H-1,2,3-triazole-4-carboxamide] | < 100 | < 100
2 | O=C(Cc1cccc(OC(F)(F)F)c1)Nc1cn(CC(F)CCn2cc(C(=O)NCc3ccccn3)nn2)nn1 (centres unmarked) [Example 327, 1-[3-fluoro-4-(4-{2-[3-(trifluoromethoxy)phenyl]acetamido}-1H-1,2,3-triazol-1-yl)butyl]-N-(pyridin-2-ylmethyl)-1H-1,2,3-triazole-4-carboxamide] | < 100 | < 100
3 | O=C(Cc1cc(OC(F)(F)F)ccc1F)Nc1cn(CCC(F)Cn2cc(C(=O)NCc3cc(OC(F)(F)F)ccc3F)nn2)nn1 (centres unmarked) [Example 404, 1-[2-fluoro-4-(4-{2-[2-fluoro-5-(trifluoromethoxy)phenyl]acetamido}-1H-1,2,3-triazol-1-yl)buty]-N-{[2-fluoro-5-(trifluoromethoxy)phenyl]methyl}-1H-1,2,3-triazole-4-carboxamide] | < 100 | < 100
4 | CNC(=O)c1cn(CC(F)CCc2nnc(NC(=O)Cc3cc(-c4cccc(OC(F)(F)F)c4)ccn3)s2)nn1 (centres unmarked) [Example 397, 1-(2-fluoro-4-(5-(2-(4-(3-(trifluoromethoxy)phenyl)pyridin-2-yl)acetamido)-1,3,4-thiadiazol-2-yl)butyl)-N-methyl-1H-1,2,3-triazole-4-carboxamide 2,2,2-trifluoroacetate] | < 100 | < 100
5 | O=C(Cc1cccc(OC(F)(F)F)c1)Nc1cn(CCCCn2cc(C(=O)NCC3CCCCC3)nn2)nn1 [Example 286, N-(cyclohexylmethyl)-1-[4-(4-{2-[3-(trifluoromethoxy)phenyl]acetamido}-1H-1,2,3-triazol-1-yl)butyl]-1H-1,2,3-triazole-4-carboxamide] | 100 to 500 | < 100
6 | O=C(CC1CCCCC1)Nc1cn(CCCCn2cc(C(=O)NCc3cccnc3)nn2)nn1 [Example 310, 1-{4-[4-(2-cyclohexylacetamido)-1H-1,2,3-triazol-1-yl]butyl}-N-(pyridin-3-ylmethyl)-1H-1,2,3-triazole-4-carboxamide] | 100 to 500 | < 100
7 | O=C(NCc1cc(OC(F)(F)F)ccc1F)c1cn(CCC(F)Cn2cc(C(=O)N[C@H](CO)c3ccccc3)nn2)nn1 (stereo partly drawn) [Example 452, 1-{2-fluoro-4-[4-({[2-fluoro-5-(trifluoromethoxy)phenyl]methyl}carbamoyl)-1H-1,2,3-triazol-1-yl]butyl}-N-[(1S)-2-hydroxy-1-phenylethyl]-1H-1,2,3-triazole-4-carboxamide] | 100 to 500 | < 100
8 | CNC(=O)c1cn(CCCCc2ccc(NC(=O)Cc3cc(C4CCOCC4)ccn3)nn2)nn1 [Example 208, N-methyl-1-(4-(6-(2-(4-(tetrahydro-2H-pyran-4-yl)pyridin-2-yl)acetamido)pyridazin-3-yl)butyl)-1H-1,2,3-triazole-4-carboxamide] | 100 to 500 | < 100
9 | Cc1ccc(CNC(=O)c2cn(CCC(F)Cn3cc(NC(=O)Cc4ccccn4)nn3)nn2)cn1 (centres unmarked) [Example 364, 1-(3-fluoro-4-{4-[2-(pyridin-2-yl)acetamido]-1H-1,2,3-triazol-1-yl}butyl)-N-[(6-methylpyridin-3-yl)methyl]-1H-1,2,3-triazole-4-carboxamide] | 500 to 5000 | 100 to 500
10 | O=C(CC1CCCC1)Nc1cn(CCCCn2cc(C(=O)NCc3cccc(OC(F)(F)F)c3)nn2)nn1 [Example 295, 1-{4-[4-(2-cyclopentylacetamido)-1H-1,2,3-triazol-1-yl]butyl}-N-{[3-(trifluoromethoxy)phenyl]methyl}-1H-1,2,3-triazole-4-carboxamide] | < 100 | < 100
11 | CNC(=O)c1cn(CC(F)CCc2nnc(NC(=O)Cc3ncc(Cl)cc3F)s2)nn1 (centres unmarked) [Example 564, 1-(4-{5-[2-(5-chloro-3-fluoropyridin-2-yl)acetamido]-1,3,4-thiadiazol-2-yl}-2-fluorobutyl)-N-methyl-1H-1,2,3-triazole-4-carboxamide] | 500 to 5000 | < 100
12 | O=C(Cc1cc(Cl)ccc1F)Nc1cn(CCCCn2cc(C(=O)NCc3ncccc3F)nn2)nn1 [Example 387, 1-(4-{4-[2-(5-chloro-2-fluorophenyl)acetamido]-1H-1,2,3-triazol-1-yl}butyl)-N-[(3-fluoropyridin-2-yl)methyl]-1H-1,2,3-triazole-4-carboxamide] | 500 to 5000 | 100 to 500
13 | CNC(=O)c1cn(CCC(F)Cn2cc(C(=O)NCc3cccc(CNC(=O)OC(C)(C)C)c3)nn2)nn1 (centres unmarked) [Example 166, tert-butyl N-[(3-{[(1-{2-fluoro-4-[4-(methylcarbamoyl)-1H-1,2,3-triazol-1-yl]butyl}-1H-1,2,3-triazol-4-yl)formamido]methyl}phenyl)methyl]carbamate] | 100 to 500 | < 100

More lines, now with the values ahead:

Row | EC50 (A549 cells) [nM] | IC50 [1] [nM] | SMILES
14 | < 100 | < 100 | O=C(NCc1cccc(OC(F)(F)F)c1)c1cn(CCCCc2nnc(C(=O)NCc3cncc(C(F)(F)F)c3)s2)nn1 [Example 76, 5-{4-[4-({[3-(trifluoromethoxy)phenyl]methyl}carbamoyl)-1H-1,2,3-triazol-1-yl]butyl}-N-{[5-(trifluoromethyl)pyridin-3-yl]methyl}-1,3,4-thiadiazole-2-carboxamide]
15 | 100 to 500 | < 100 | CNC(=O)c1cn(CC(F)CCc2nnc(C(=O)NCc3cc(OC(F)(F)F)ccc3F)s2)nn1 (centres unmarked) [Example 562, 5-{3-fluoro-4-[4-(methylcarbamoyl)-1H-1,2,3-triazol-1-yl]butyl}-N-{[2-fluoro-5-(trifluoromethoxy)phenyl]methyl}-1,3,4-thiadiazole-2-carboxamide]
16 | < 100 | < 100 | O=C(Cc1ccccn1)Nc1ccc(CCCCn2cc(C(=O)NCc3cc(OC(F)(F)F)ccc3F)nn2)nn1 [Example 588, N-(2-fluoro-5-(trifluoromethoxy)benzyl)-1-(4-(6-(2-(pyridin-2-yl)acetamido)pyridazin-3-yl)butyl)-1H-1,2,3-triazole-4-carboxamide]
17 | < 100 | < 100 | O=C(NCc1cc(C2CC2)ccn1)c1cn(CCC(F)Cn2cc(C(=O)NCc3cccc(OC(F)(F)F)c3)nn2)nn1 (centres unmarked) [Example 148, 1-[4-(4-({[4-cyclopropylpyridin-2-yl)methyl]carbamoyl}-1H-1,2,3-triazol-1-yl)-2-fluorobutyl]-N-{[3-(trifluoromethoxy)phenyl]methyl}-1H-1,2,3-triazole-4-carboxamide]
18 | < 100 | < 100 | O=C(NCc1cccc(OC(F)(F)F)c1)c1cn(CCCCc2nnc(C(=O)NCc3ccc(C(F)(F)F)cn3)s2)nn1 [Example 77, 5-{4-[4-({[3-(trifluoromethoxy)phenyl]methyl}carbamoyl)-1H-1,2,3-triazol-1-yl]butyl}-N-{[5-(trifluoromethyl)pyridin-2-yl]methyl}-1,3,4-thiadiazole-2-carboxamide]
19 | 100 to 500 | < 100 | O=C(NCc1ccccn1)c1cn(CCCCc2nnc(C(=O)NCc3cccc(OC(F)(F)F)c3)s2)nn1 [Example 65, 5-(4-{4-[(pyridin-2-ylmethyl)carbamoyl]-1H-1,2,3-triazol-1-yl}butyl)-N-{[3-(trifluoromethoxy)phenyl]methyl}-1,3,4-thiadiazole-2-carboxamide]
20 | < 100 | < 100 | O=C(Cc1cc(OC(F)(F)F)ccc1F)Nc1cn(CC(F)CCn2cc(C(=O)NCc3cccc(OC(F)(F)F)c3)nn2)nn1 (centres unmarked) [Example 379, 1-[3-fluoro-4-(4-{2-[2-fluoro-5-(trifluoromethoxy)phenyl]acetamido}-1H-1,2,3-triazol-1-yl)butyl]-N-{[3-(trifluoromethoxy)phenyl]methyl}-1H-1,2,3-triazole-4-carboxamide]
21 | < 100 | < 100 | O=C(NCc1cncc(C(F)(F)F)c1)c1cn(CCCCn2cc(C(=O)NCc3ccc(C(F)(F)F)cn3)nn2)nn1 [Example 142, 1-{4-[4-({[5-(trifluoromethyl)pyridin-2-yl]methyl}carbamoyl)-1H-1,2,3-triazol-1-yl]butyl}-N-{[5-(trifluoromethyl)pyridin-3-yl]methyl}-1H-1,2,3-triazole-4-\ carboxamide]
22 | < 100 | < 100 | O=C(NCc1cccc(C2CC2)c1)c1cn(CCCCn2cc(C(=O)NCc3cc(C(F)(F)F)ccn3)nn2)nn1 [Example 105, 1-[4-(4-{[(3-cyclopropylphenyl)methyl]carbamoyl}-1H-1,2,3-triazol-1-yl)butyl]-N-{[4-(trifluoromethyl)pyridin-2-yl]methyl}-1H-1,2,3-triazole-4-carboxamide]
23 | < 100 | < 100 | O=C(NCc1ccc(OC(F)(F)F)cc1)c1cn(CCC(F)Cn2cc(C(=O)NCc3cc(C(F)(F)F)ccn3)nn2)nn1 (centres unmarked) [Example 469, 1-{2-fluoro-4-[4-({[4-(trifluoromethoxy)phenyl]methyl}carbamoyl)-1H-1,2,3-triazol-1-yl]butyl}-N-{[4-(trifluoromethyl)pyridin-2-yl]methyl}-1H-1,2,3-triazole-4-carboxamide]
24 | 100 to 500 | < 100 | O=C(Cc1cccc(OC(F)(F)F)c1)Nc1cn(CCCCn2cc(C(=O)NCc3ccccn3)nn2)nn1 [Example 279, N-(pyridin-2-ylmethyl)-1-[4-(4-{2-[3-(trifluoromethoxy)phenyl]acetamido}-1H-1,2,3-triazol-1-yl)butyl]-1H-1,2,3-triazole-4-carboxamide]
25 | < 100 | < 100 | O=C(Cc1cc(OC(F)(F)F)ccc1F)Nc1cn(CC(F)CCn2cc(C(=O)NCc3cc(C(F)(F)F)ccn3)nn2)nn1 (centres unmarked) [Example 395, 1-[3-fluoro-4-(4-{2-[2-fluoro-5-(trifluoromethoxy)phenyl]acetamido}-1H-1,2,3-triazol-1-yl)butyl]-N-{[4-(trifluoromethyl)pyridin-2-yl]methyl}-1H-1,2,3-triazole-4-carboxamide]
